Assay results as given in patent publication US20060116368A1, “4-Piperidinecarboxamide modulators of vanilloid VR1 receptor” (priority 2004, published 2006).

Target: T1, Human Vanilloid Receptor 1 (Homo sapiens, UniProt Q8NER1)
T1 construct: expressed in transfected cells; host or cells: HEK 293
Test: Human VR1 functional assay using FLIPR, Protocol 1
Type: cell-based
Conditions: for inhibition at 9 µM: HEK293, 9 uM, inhibition of capsaicin (EC80)-induced calcium response, HEK 293 cells transfected with hVR1, read-out: h % I (9 uM); for IC50: decreased capsaicin (EC80)-induced calcium response, HEK 293 hVR1, read-out: h IC50
Procedure: The functional activity of the test compounds was determined by measuring changes in intracellular calcium concentration using FLIPR™ Calcium-3 Assay Kit and FLIPR™ technology.
HEK 293 cells transfected with Human Vanilloid Receptor 1 were maintained at 37° C. and 5% CO2 in: Dulbecco's Modification of Eagle's Medium (high glucose, L-glutamine, pyridoxine HCl, No sodium pyruvate), 10% FBS, 1× Penicillin-Streptomycin-Amphotericin B, 200 ug/mL zeocin. Approximately 24 hours prior to assay, 30,000 cells/well were plated onto a 384-well black clear bottom poly-D-lysine-coated assay plate with a well volume of 25 µL using Titertek Multidrop.
On the day of the assay, the medium was dumped and 50 μL 1× dye were loaded using Multidrop. Plates were incubated with dye at 37° C. for 30 minutes followed by 30 minutes incubation at room temperature. Then the plates were assayed by FLIPR™ with 2 additions: 12.5 μL test compound with 5 minutes data acquisition followed by 12.5 μL capsaicin at the EC80 concentration.
The EC50 values of test compounds were calculated based on a test compound-induced calcium response at the 5-minute time point. The IC50 values of compounds were calculated based on a decreased capsaicin-induced calcium response in the presence of test compound.

T1 sequence (Q8NER1 whole entry): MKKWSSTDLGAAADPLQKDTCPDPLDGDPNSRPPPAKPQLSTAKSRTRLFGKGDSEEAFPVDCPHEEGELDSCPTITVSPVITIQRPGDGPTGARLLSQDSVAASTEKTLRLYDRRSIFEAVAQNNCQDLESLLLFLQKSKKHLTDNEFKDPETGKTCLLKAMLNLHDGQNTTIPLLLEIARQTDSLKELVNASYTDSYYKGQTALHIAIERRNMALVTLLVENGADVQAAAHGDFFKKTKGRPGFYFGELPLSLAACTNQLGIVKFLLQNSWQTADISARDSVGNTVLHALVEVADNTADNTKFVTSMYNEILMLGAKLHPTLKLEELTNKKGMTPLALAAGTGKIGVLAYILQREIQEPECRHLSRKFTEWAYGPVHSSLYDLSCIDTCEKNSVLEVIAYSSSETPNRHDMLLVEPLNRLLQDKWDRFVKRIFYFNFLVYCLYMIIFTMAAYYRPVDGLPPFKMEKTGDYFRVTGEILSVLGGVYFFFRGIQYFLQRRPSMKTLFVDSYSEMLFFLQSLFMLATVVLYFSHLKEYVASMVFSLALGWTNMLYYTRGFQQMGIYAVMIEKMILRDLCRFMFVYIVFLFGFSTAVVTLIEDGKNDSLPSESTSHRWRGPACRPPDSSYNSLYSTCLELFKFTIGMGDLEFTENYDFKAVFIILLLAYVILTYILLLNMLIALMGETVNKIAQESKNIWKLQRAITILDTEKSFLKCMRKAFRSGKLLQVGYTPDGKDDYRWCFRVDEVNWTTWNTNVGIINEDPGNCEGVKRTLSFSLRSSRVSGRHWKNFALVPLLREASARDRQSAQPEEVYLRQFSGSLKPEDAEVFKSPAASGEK

| Structure (SMILES) | inhibition at 9 µM | IC50 |
| --- | --- | --- |
| Cc1cc(C)c2c(NC(=O)C3CCN(c4cccc(C(F)(F)F)c4)CC3)csc2n1 [Example 41, 1-(3-Trifluoromethyl-phenyl)-piperidine-4-carboxylic acid (4,6-dimethyl-thieno[2,3-b]pyridin-3-yl)-amide] | 12% | – |
| COc1ccc(-c2cnc(NC(=O)C3CCN(c4cccc(C(F)(F)F)c4)CC3)nc2C)cc1OC [Example 42, 1-(3-Trifluoromethyl-phenyl)-piperidine-4-carboxylic acid [5-(3,4-dimethoxy-phenyl)-4-methyl-pyrimidin-2-yl]-amide] | 11% | – |
| Cc1cc(Oc2ccccc2)nc(NC(=O)C2CCN(c3cccc(C(F)(F)F)c3)CC2)n1 [Example 43, 1-(3-Trifluoromethyl-phenyl)-piperidine-4-carboxylic acid (4-methyl-6-phenoxy-pyrimidin-2-yl)-amide] | 10% | – |
| O=C1COc2cc(NC(=O)C3CCN(c4cccc(C(F)(F)F)c4)CC3)ccc2N1 [Example 44, 1-(3-Trifluoromethyl-phenyl)-piperidine-4-carboxylic acid (3-oxo-3,4-dihydro-2H-benzo[1,4]oxazin-7-yl)-amide] | 33% | – |
| CNc1ccc2ncncc2c1NC(=O)C1CCN(c2cccc(C(F)(F)F)c2)CC1 [Example 45, 1-(3-Trifluoromethyl-phenyl)-piperidine-4-carboxylic acid (6-methylamino-quinazolin-5-yl)-amide] | 5% | – |
| CC(=O)N1CCc2c(NC(=O)C3CCN(c4cccc(C(F)(F)F)c4)CC3)cccc21 [Example 46, 1-(3-Trifluoromethyl-phenyl)-piperidine-4-carboxylic acid (1-acetyl-2,3-dihydro-1H-indol-4-yl)-amide] | 61.4% | 1200 nM |
| O=C(Nc1cc(-c2ccco2)n[nH]1)C1CCN(c2cccc(C(F)(F)F)c2)CC1 [Example 47, 1-(3-Trifluoromethyl-phenyl)-piperidine-4-carboxylic acid (5-furan-2-yl-2H-pyrazol-3-yl)-amide] | 12% | – |
| O=C(Nc1cc(-c2cccs2)n[nH]1)C1CCN(c2cccc(C(F)(F)F)c2)CC1 [Example 48, 1-(3-Trifluoromethyl-phenyl)-piperidine-4-carboxylic acid (5-thiophen-2-yl-2H-pyrazol-3-yl)-amide] | 9.5% | – |
| Cc1cc(Cl)nnc1NC(=O)C1CCN(c2cccc(C(F)(F)F)c2)CC1 [Example 51, 1-(3-Trifluoromethyl-phenyl)-piperidine-4-carboxylic acid (6-chloro-4-methyl-pyridazin-3-yl)-amide] | 8% | – |
| Cn1cnc2c(N3CCC(C(=O)Nc4cccc5[nH]ccc45)CC3)ncnc21 [Example 54, 1-(9-Methyl-9H-purin-6-yl)-piperidine-4-carboxylic acid (1H-indol-4-yl)-amide] | 16% | – |
| O=C1COc2ccc(NC(=O)C3CCN(c4ccccc4)CC3)cc2N1 [Example 139, 1-Phenyl-piperidine-4-carboxylic acid (3-oxo-3,4-dihydro-2H-benzo[1,4]oxazin-6-yl)-amide] | 85% | 1810 nM |
| O=C1COc2ccc(NC(=O)C3CCN(c4cccc(Br)c4)CC3)cc2N1 [Example 149, 1-(3-Bromo-phenyl)-piperidine-4-carboxylic acid (3-oxo-3,4-dihydro-2H-benzo[1,4]oxazin-6-yl)-amide] | 91.3% | 330 nM |
| COc1cccc(N2CCC(C(=O)Nc3ccc4c(c3)NC(=O)CO4)CC2)c1 [Example 150, 1-(3-Methoxy-phenyl)-piperidine-4-carboxylic acid (3-oxo-3,4-dihydro-2H-benzo[1,4]oxazin-6-yl)-amide] | 79.3% | 1420 nM |
| O=C1COc2ccc(NC(=O)C3CCN(c4cc(F)c(F)c(F)c4)CC3)cc2N1 [Example 156, 1-(3,4,5-Trifluoro-phenyl)-piperidine-4-carboxylic acid (3-oxo-3,4-dihydro-2H-benzo[1,4]oxazin-6-yl)-amide] | 93.3% | 60 nM |
| Cc1c(Cl)cccc1N1CCC(C(=O)Nc2ccc3c(c2)NC(=O)CO3)CC1 [Example 157, 1-(3-Chloro-2-methyl-phenyl)-piperidine-4-carboxylic acid (3-oxo-3,4-dihydro-2H-benzo[1,4]oxazin-6-yl)-amide] | 90.3% | 100 nM |
| Cc1cccnc1N1CCC(C(=O)Nc2ccc3c(c2)NC(=O)CO3)CC1 [Example 158, 3′-Methyl-3,4,5,6-tetrahydro-2H-[1,2′]bipyridinyl-4-carboxylic acid (3-oxo-3,4-dihydro-2H-benzo[1,4]oxazin-6-yl)-amide] | 39% | – |
| O=C1COc2ccc(NC(=O)C3CCN(c4nc5ccccc5s4)CC3)cc2N1 [Example 159, 1-Benzothiazol-2-yl-piperidine-4-carboxylic acid (3-oxo-3,4-dihydro-2H-benzo[1,4]oxazin-6-yl)-amide] | 20.7% | – |
| O=C1COc2ccc(NC(=O)C3CCN(c4cccc(F)c4Br)CC3)cc2N1 [Example 160, 1-(2-Bromo-3-fluoro-phenyl)-piperidine-4-carboxylic acid (3-oxo-3,4-dihydro-2H-benzo[1,4]oxazin-6-yl)-amide] | 93% | 130 nM |
| O=C1COc2ccc(NC(=O)C3CCN(c4ncccc4[N+](=O)[O-])CC3)cc2N1 [Example 161, 3′-Nitro-3,4,5,6-tetrahydro-2H-[1,2′]bipyridinyl-4-carboxylic acid (3-oxo-3,4-dihydro-2H-benzo[1,4]oxazin-6-yl)-amide] | 28.7% | – |
| N#Cc1c(N2CCC(C(=O)Nc3ccc4c(c3)NC(=O)CO4)CC2)cccc1C(F)(F)F [Example 162, 1-(2-Cyano-3-trifluoromethyl-phenyl)-piperidine-4-carboxylic acid (3-oxo-3,4-dihydro-2H-benzo[1,4]oxazin-6-yl)-amide] | 37% | – |
| N#Cc1ccc(C(F)(F)F)cc1N1CCC(C(=O)Nc2ccc3c(c2)NC(=O)CO3)CC1 [Example 163, 1-(2-Cyano-5-trifluoromethyl-phenyl)-piperidine-4-carboxylic acid (3-oxo-3,4-dihydro-2H-benzo[1,4]oxazin-6-yl)-amide] | 19.7% | – |
| O=C1COc2ccc(NC(=O)C3CCN(c4c(F)c(F)c(Br)c(F)c4F)CC3)cc2N1 [Example 164, 1-(4-Bromo-2,3,5,6-tetrafluoro-phenyl)-piperidine-4-carboxylic acid (3-oxo-3,4-dihydro-2H-benzo[1,4]oxazin-6-yl)-amide] | 87% | 110 nM |
| O=C1COc2ccc(NC(=O)C3CCN(c4ccccc4C(F)(F)F)CC3)cc2N1 [Example 165, 1-(2-Trifluoromethyl-phenyl)-piperidine-4-carboxylic acid (3-oxo-3,4-dihydro-2H-benzo[1,4]oxazin-6-yl)-amide] | 94.8% | 380 nM |
| O=C1COc2ccc(NC(=O)C3CCN(c4cc(C(F)(F)F)ccc4C(F)(F)F)CC3)cc2N1 [Example 166, 1-(2,5-Bis-trifluoromethyl-phenyl)-piperidine-4-carboxylic acid (3-oxo-3,4-dihydro-2H-benzo[1,4]oxazin-6-yl)-amide] | 100% | 290 nM |
